Experimental data from patent publication US8809290B2 (priority 2002, dated 2014).
No end group written: not given here.

How the values were obtained:
[1] = system: T cell immunity to MHC class I-restricted peptides R10K and SIINFEKL; design: species or system BALB/c mice; C57BL/6 mice; conditions: mouse, in vivo
[2] = system: CD 11b+ APC; format: binding, C57 BL/6 mice
[3] = system: chemokine gene-expression; design: species or system mice; conditions: mouse, in vivo
[4] = system: antibodies against hIgG; design: species or system C57BL/6 mice; conditions: mouse, in vivo, iv
[5] = system: Human THP-1 monocytic cells; format: binding
[6] = system: SP2/0 cells expressing IgNP; design: species or system Balb/c mice; conditions: mouse, in vivo
[7] = mouse, in vivo, iv

Polyadenylic-Polyuridylic Acid [pA:pU]
T cell immunity to MHC class I-restricted peptides (IFN-γ, IL-4 SFC/spleen) [1]: able to promote increased T cell immunity to different MHC class I-restricted peptides | receptor binding on APC (competition with tagged pA:pU) [2]: bind to different cellular receptors | chemokine expression in pulmonary tissue [3]: trigger expression of a wide range of chemokines | prevention of high zone tolerance (anti-hIgG endpoint titers) [4]: largely prevent high zone tolerance | competition of binding of tagged pA:pU to THP-1 cells [5]: able to compete out the binding of tagged pA:pU | outcome of tumor-bearing mice [6]: succumbed to disease

SFERFEIFPKE [HA peptide]
detection of epitope in the blood as function of time post-injection [7]: not detected in the periphery
